{"source": "patent US20180185370A1", "about": "“PYRAZINOQUINAZOLINONE DERIVATIVES WITH ANTIBACTERIAL ACTIVITY, METHODS AND USES THEREOF” (UNIVERSIDADE DO PORTO, priority 2015, published 2018)", "key": {"S. aureus ATCC 25923": {"system": "S. aureus ATCC 25923", "assay": "Antibacterial susceptibility testing, broth microdilution (MIC/MBC)", "type": "cell-based, Staphylococcus aureus", "experimental": "(§1) Bacterial strains and growth conditions. Five reference strains, Staphylococcus aureus ATCC 25923, Bacillus subtilis ATCC 6633, E. faecalis ATCC 29212, Escherichia coli ATCC 25922 and Pseudomonas aeruginosa ATCC 27853, and three multidrug-resistant isolates from environment, S. aureus B1 (a MRSA isolated from public buses), Enterococcus faecalis W1 (a VRE isolated from river water) and E. coli G1 (isolated from seagull feces) were used. Bacteria were grown overnight at 37° C. in Mueller-Hinton agar (MH—BioKar diagnostics, Allonne, France) prior to obtain be used in the subsequently described bioassays.\n(§2) Antibacterial susceptibility testing. The minimum inhibitory concentration (MIC) values of the compounds of FIGS. 1D, 1E, 1G, 1H (equation i-iv) and 11 (equations v-x) were determined, in particular, by a broth microdilution technique, following the recommendations of the Clinical and Laboratory Standards Institute. Stock solutions of 10 mg/ml in DMSO were used to prepare in-test concentrations ranging from 2 to 256 μg/ml. Ciprofloxacin in the concentration range from 0.03125 to 16 μg/ml was used, in particular, as control drug in the experiment. The MIC was defined as the lowest concentration of compound that has inhibited the visible growth. The minimum bactericidal concentration (MBC) was determined by spreading on MH plates, 10 μL collected from the wells corresponding to the MIC and to higher concentrations, with further incubation for 24 h at 37° C.; the lowest concentration at which no growth occurred on MH was defined as the MBC."}, "S. aureus B1 (MRSA)": {"system": "S. aureus B1 (MRSA)", "assay": "Antibacterial susceptibility testing, broth microdilution (MIC/MBC)", "type": "cell-based, Staphylococcus aureus", "details": "S. aureus B1 (MRSA)", "experimental": "as §1, §2"}, "B. subtilis ATCC 6633": {"system": "B. subtilis ATCC 6633", "assay": "Antibacterial susceptibility testing, broth microdilution (MIC/MBC)", "type": "cell-based, Bacillus subtilis", "experimental": "as §1, §2"}, "P. aeruginosa ATCC 27853": {"system": "P. aeruginosa ATCC 27853", "assay": "Antibacterial susceptibility testing, broth microdilution (MIC)", "type": "cell-based, Pseudomonas aeruginosa", "experimental": "as §1, §2"}, "E. coli ATCC 25922": {"system": "E. coli ATCC 25922", "assay": "Antibacterial susceptibility testing, broth microdilution (MIC)", "type": "cell-based, Escherichia coli", "experimental": "as §1, §2"}, "E. faecalis ATCC 29212": {"system": "E. faecalis ATCC 29212", "assay": "Antibacterial susceptibility testing, broth microdilution (MIC/MBC)", "type": "cell-based, Enterococcus faecalis", "experimental": "as §1, §2"}, "E. faecalis W1 (VRE)": {"system": "E. faecalis W1 (VRE)", "assay": "Antibacterial susceptibility testing, broth microdilution (MIC/MBC)", "type": "cell-based, Enterococcus faecalis", "details": "E. faecalis W1 (VRE)", "experimental": "as §1, §2"}, "[1]": {"system": "S. aureus and E. faecalis strains", "assay": "Antibacterial susceptibility testing", "type": "cell-based", "experimental": "as §1, §2"}, "[2]": {"system": "S. aureus ATCC 25923, E. faecalis ATCC 29212, S. aureus B1 and E. faecalis W1", "assay": "Inhibition of biofilm formation, crystal violet assay", "type": "cell-based", "details": "for biofilm formation (biomass, crystal violet): 24 h", "experimental": "The efficacy of neofiscalin A was also evaluated in hampering the biofilm formation. Neofiscalin A, in particular, at concentrations of 2×MIC, MIC, ½×MIC and ¼×MIC was added to bacterial suspensions of 1×10^6 CFU/ml in Tryptic Soy Broth (TSB—BioKar diagnostics, Allonne, France) of S. aureus ATCC 25923, E. faecalis ATCC 29212, S. aureus B1 and E. faecalis W1. Bacterial suspensions in absence of the compound were used as controls. Biofilm formation was induced, in particular, in 96-well flat-bottomed microtiter plates (200 μL/well) for 24 h at 37° C. After that time, biofilm biomass was quantified through the crystal violet assay as follows: the planktonic phase was discharged, then the biofilm was stained with 0.5% crystal violet for 5 min, rinsed with water, air dried and eluted with acetic acid 33% (v/v). The optical density was measured at 595 nm (0D595) using a microplate reader (iMark™ microplate absorbance reader, Bio-Rad Laboratories, Hercules, Calif., USA). Two independent experiments were performed in triplicate for each experimental condition. The statistical significance of the difference between biofilm controls and biofilms in the presence of different concentrations of compounds was evaluated using Student's t test. In both cases, probability levels <0.05 were considered statistically significant. Additionally, a microscopic visualization of the biofilms of S. aureus B1 and E. faecalis W1 was performed, in particular, using the Live/Dead BacLight viability kit (Life Technologies—Molecular Probes, Carlsbad, Calif., USA). Biofilms were formed, in particular, in 35-mm diameter polystyrene plates using TSB (control) and TSB supplemented with the MIC or ¼×MIC of neofiscalin A. After 24 h at 37° C., the planktonic phase was removed from each plate and the biofilms were washed with PBS, stained with the appropriate mixture of SYTO 9 and propidium iodide stains and incubated for 20 min at room temperature, in particular 20-25° C., in the dark; then, biofilms were rinsed and examined under a fluorescence microscope (BX41 Microscope, Olympus America Inc., Center Valley, Pa., USA). Images were recorded at an emission wavelength of 500 nm for SYTO 9 (green fluorescence) and of 635 nm for propidium iodide (red fluorescence)."}, "[3]": {"system": "S. aureus B1 and E. faecalis W1", "assay": "Microscopic visualization of biofilms, Live/Dead staining", "type": "cell-based", "details": "24 h", "experimental": "The efficacy of neofiscalin A was also evaluated in hampering the biofilm formation. Neofiscalin A, in particular, at concentrations of 2×MIC, MIC, ½×MIC and ¼×MIC was added to bacterial suspensions of 1×10^6 CFU/ml in Tryptic Soy Broth (TSB—BioKar diagnostics, Allonne, France) of S. aureus ATCC 25923, E. faecalis ATCC 29212, S. aureus B1 and E. faecalis W1. Bacterial suspensions in absence of the compound were used as controls. Biofilm formation was induced, in particular, in 96-well flat-bottomed microtiter plates (200 μL/well) for 24 h at 37° C. After that time, biofilm biomass was quantified through the crystal violet assay as follows: the planktonic phase was discharged, then the biofilm was stained with 0.5% crystal violet for 5 min, rinsed with water, air dried and eluted with acetic acid 33% (v/v). The optical density was measured at 595 nm (0D595) using a microplate reader (iMark™ microplate absorbance reader, Bio-Rad Laboratories, Hercules, Calif., USA). Two independent experiments were performed in triplicate for each experimental condition. The statistical significance of the difference between biofilm controls and biofilms in the presence of different concentrations of compounds was evaluated using Student's t test. […] Images were recorded at an emission wavelength of 500 nm for SYTO 9 (green fluorescence) and of 635 nm for propidium iodide (red fluorescence)."}, "S. aureus B1 [4]": {"system": "S. aureus B1", "assay": "Biofilm inhibitory and biofilm eradication concentrations on 24-h mature biofilms", "type": "cell-based, Staphylococcus aureus", "experimental": "(§3) Determination of neofiscalin A biofilm inhibitory and biofilm eradication concentrations. The efficacy of neofiscalin A on 24-h mature biofilms of S. aureus B1 and E. faecalis W1 was also evaluated, in particular, by determining the BIC and the BEC. […] The optical density at 595 nm was measured at time 0 and after incubation for 24 h at 37° C. The BIC was determined as the lowest concentration of the compound inhibiting growth in the supernatant fluid, confirmed by no increase in the optical density compared with the initial reading. The BEC was determined as the lowest concentration that prevented regrowth of biofilm cells on tryptic soy agar plates."}, "E. faecalis W1 [5]": {"system": "E. faecalis W1", "assay": "Biofilm inhibitory and biofilm eradication concentrations on 24-h mature biofilms", "type": "cell-based, Enterococcus faecalis", "experimental": "as §3"}, "S. aureus B1 [6]": {"system": "S. aureus B1", "assay": "Biofilm metabolic activity after treatment, MTT", "type": "cell-based, Staphylococcus aureus", "details": "24-h biofilms of S. aureus B1 treated for 24 h with 200 μg/ml", "experimental": "(§4) Evaluation of the biofilm metabolic activity after treatment with different concentrations of neofiscalin A. Twenty four-hours biofilms of S. aureus B1 and E. faecalis W1 formed as above described were subsequently treated with high concentrations of neofiscalin A, in particular up to 25×MIC. After 24 h of incubation at 37° C., the bacterial metabolic activity of biofilms was quantified using the 3-(4,5-dimethylthiazole-2-yl)-2,5-diphenyl tetrazolium bromide (MTT, Sigma-Aldrich, St Louis, USA). MTT is used to assess cell viability as a function of redox potential. Actively respiring cells convert the water-soluble MU to an insoluble purple formazan. The formazan is then solubilized and its concentration determined by optical density. In this assay, biofilms were treated with MU (0.5 mg/ml) for 2 h at 37° C. in the dark. DMSO was used to extract the formazan dye product and then the absorbance at 550 nm was measured."}, "E. faecalis W1 [7]": {"system": "E. faecalis W1", "assay": "Biofilm metabolic activity after treatment, MTT", "type": "cell-based, Enterococcus faecalis", "details": "24-h biofilms of E. faecalis W1 treated for 24 h with 200 μg/ml", "experimental": "as §4"}}, "data": [{"molecule": "CC(C)[C@@H]1NC(=O)[C@@H](C[C@]2(O)c3ccccc3N3C(=O)[C@@H](C)N[C@H]32)n2c1nc1ccccc1c2=O", "note": "[FIG. 1I (eq. ix), neofiscalin A]", "values": [{"measurement": "Minimum bactericidal concentration-MBC", "setting": "S. aureus ATCC 25923", "result": 16, "unit": "µg/mL"}, {"measurement": "Minimum inhibitory concentration-MIC", "setting": "S. aureus ATCC 25923", "result": 8, "unit": "µg/mL"}, {"measurement": "Minimum bactericidal concentration-MBC", "setting": "S. aureus B1 (MRSA)", "result": 32, "unit": "µg/mL"}, {"measurement": "Minimum inhibitory concentration-MIC", "setting": "S. aureus B1 (MRSA)", "result": 8, "unit": "µg/mL"}, {"measurement": "Minimum bactericidal concentration-MBC", "setting": "B. subtilis ATCC 6633", "result": ">256", "unit": "µg/mL"}, {"measurement": "Minimum inhibitory concentration-MIC", "setting": "B. subtilis ATCC 6633", "result": 128, "unit": "µg/mL"}, {"measurement": "Minimum inhibitory concentration-MIC", "setting": "P. aeruginosa ATCC 27853", "result": ">256", "unit": "µg/mL"}, {"measurement": "Minimum inhibitory concentration-MIC", "setting": "E. coli ATCC 25922", "result": ">256", "unit": "µg/mL"}, {"measurement": "Minimum bactericidal concentration-MBC", "setting": "E. faecalis ATCC 29212", "result": 32, "unit": "µg/mL"}, {"measurement": "Minimum inhibitory concentration-MIC", "setting": "E. faecalis ATCC 29212", "result": 8, "unit": "µg/mL"}, {"measurement": "Minimum bactericidal concentration-MBC", "setting": "E. faecalis W1 (VRE)", "result": 32, "unit": "µg/mL"}, {"measurement": "Minimum inhibitory concentration-MIC", "setting": "E. faecalis W1 (VRE)", "result": 8, "unit": "µg/mL"}, {"measurement": "MIC value", "setting": "[1]; S. aureus and E. faecalis strains, including multidrug-resistant isolates (MRSA, VRE)", "result": 8, "unit": "µg/mL"}, {"measurement": "MBC relative to the MIC", "setting": "[1]; Table 3 versus Table 2", "result": "usually four times higher than the MIC"}, {"measurement": "antibacterial activity", "setting": "[1]; reference strains and multidrug-resistant isolates, highest concentration tested 256 μg/ml", "result": "presented antibacterial activity against Gram-positive bacteria"}, {"measurement": "biofilm formation (biomass, crystal violet)", "setting": "[2]; 2×MIC and MIC", "result": "none of the strains was able to form a biofilm"}, {"measurement": "biofilm formation", "setting": "[2]; MRSA and VRE strains", "result": "inhibit the biofilm formation"}, {"measurement": "biofilm formation (biomass, crystal violet)", "setting": "[2]; ¼×MIC", "result": "allowed the formation of a larger biofilm, but smaller than that observed in the control group"}, {"measurement": "biofilm formation (biomass, crystal violet)", "setting": "[2]; ½×MIC", "result": "the strains did not succeed in forming much biofilm"}, {"measurement": "biofilm formation (Live/Dead microscopy)", "setting": "[3]; at the MIC", "result": "no biofilm was produced"}, {"measurement": "biofilm formation (Live/Dead microscopy)", "setting": "[3]; ¼×MIC", "result": "a biofilm was formed (FIG. 4C), though it was not as large as in the control"}, {"measurement": "biofilm inhibitory concentration (BIC)", "setting": "S. aureus B1 [4]; 24-h biofilms of S. aureus B1 (MRSA)", "result": 96, "unit": "µg/mL"}, {"measurement": "biofilm eradication concentration (BEC)", "setting": "S. aureus B1 [4]; 24-h biofilms of S. aureus B1, higher than 25×MIC", "result": "> 200", "unit": "µg/mL"}, {"measurement": "biofilm inhibitory concentration (BIC)", "setting": "E. faecalis W1 [5]; 24-h biofilms of E. faecalis W1 (VRE)", "result": 80, "unit": "µg/mL"}, {"measurement": "biofilm eradication concentration (BEC)", "setting": "E. faecalis W1 [5]; 24-h biofilms of E. faecalis W1, higher than 25×MIC", "result": "> 200", "unit": "µg/mL"}, {"measurement": "reduction of metabolic activity of biofilm (MTT)", "setting": "S. aureus B1 [6]", "result": "~50", "unit": "%"}, {"measurement": "reduction of metabolic activity of biofilm (MTT)", "setting": "E. faecalis W1 [7]", "result": "~50", "unit": "%"}]}]}
